≈ marks a conversion by molar mass, not a printed value. Entries after “also recorded” stand apart in the source; their conditions may differ. Read-outs that look alike come from different tables or passages of the source.
Columns and labels:
S. aureus ATCC 11632 = assay: Broth microdilution susceptibility testing; assay type: cell-based; conditions: Staphylococcus aureus, ATCC11632, read-out: Minimum Inhibitory Concentration (MIC90) S. aureus ATCC 11632 − Thy
E. coli ATCC 25922 [1] = assay: Broth microdilution susceptibility testing; assay type: cell-based; conditions: Escherichia coli, ATCC25922, read-out: Minimum Inhibitory Concentration (MIC90) E. coli ATCC 25922 − Thy
P. aeruginosa PAO1 = assay: Broth microdilution susceptibility testing; assay type: cell-based; conditions: Pseudomonas aeruginosa, PAO1, read-out: Minimum Inhibitory Concentration (MIC90) P. aeruginosa PAO1 − Thy
SaDHFR = SaDHFR (Staphylococcus aureus, UniProt P0A017); assay type: biochemical; conditions: apparent IC50; purified S. aureus DHFR
SaDHFR, sequence (P0A017 whole entry): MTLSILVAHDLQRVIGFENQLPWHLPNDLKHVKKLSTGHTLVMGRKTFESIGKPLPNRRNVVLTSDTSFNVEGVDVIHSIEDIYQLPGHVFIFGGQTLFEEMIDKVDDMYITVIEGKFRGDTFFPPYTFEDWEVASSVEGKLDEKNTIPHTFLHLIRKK

M. tuberculosis H37Rv = assay: Microplate alamar blue assay; assay type: cell-based; conditions: Mycobacterium tuberculosis
M. abscessus L948 = assay: MABA assay in M. abscessus; assay type: cell-based; conditions: for IC50: Mycobacteroides abscessus, L948, read-out: Half-Maximal Inhibitory Concentration (IC50, μM) M. abscessus L948 MABA
E. coli ATCC 25922 [2] = assay: SYTOX Green uptake assay; assay type: cell-based; conditions: any of the concentrations tested; melittin as positive control
[3] = tested on: E. coli W3310ΔmscL::Kan, E. coli K12 W3310ΔmscS, E. coli W3310; assay type: cell-based; conditions: comparison between knock-out and WT strains
Micrococcus luteus = assay: Kirby-Bauer agar diffusion assay; assay type: cell-based
Bacillus subtilis = assay: Kirby-Bauer agar diffusion assay; assay type: cell-based
S. aureus = assay: Kirby-Bauer agar diffusion assay; assay type: cell-based; conditions: both tested strains of S. aureus
[4] = read-out: Minimum Inhibitory Concentration (MIC90, μM) M. tuberculosis H37Rv MABA: 7H12 Media
[5] = read-out: Minimum Inhibitory Concentration (MIC90, μM) M. tuberculosis H37Rv MABA: GAST Media

In the case of CC1(C)N=C(N)N=C(N)N1c1ccc(Cl)cc1 [CYC, cycloguanil], the MIC90 (S. aureus ATCC 11632) is reported as greater than 128 µM, the MIC90 (E. coli ATCC 25922 [1]) is reported as greater than 128 µM and the MIC90 (P. aeruginosa PAO1) is reported as greater than 128 µM. The “SaDHFR IC50 (μM ± SD)” value (SaDHFR) was “did not inhibit and nf^a”, the MIC90 (M. tuberculosis H37Rv; [4]) was 74.8 µM (≈ 18.8 µg/mL) and the MIC90 (M. tuberculosis H37Rv; [5]) was greater than 100 µM. The “Half-Maximal Inhibitory Concentration (IC50, μM) M. abscessus L948 MABA” value (M. abscessus L948; MABA) was “no inhibition”, the IC50 (M. abscessus L948) was greater than 200 µM and the “SYTOX Green uptake” value (E. coli ATCC 25922 [2]) was “no uptake”. For the same compound, the “MIC values against E. coli ΔmscL, ΔmscS and WT parent strain set” value [3] was “no significant differences”, the “susceptibility / activity in agar diffusion, M. luteus” value (Micrococcus luteus) was “no activity” and the “susceptibility / activity in agar diffusion, B. subtilis” value (Bacillus subtilis) was “susceptible; also recorded: low activity”. For the same compound, the “activity in agar diffusion, S. aureus” value (S. aureus) was “no activity” and the hemolysis (human erythrocytes) was “no detectable hemolysis”.

In the case of CC[C@H]1OC(=O)[C@H](C)[C@@H](O[C@H]2C[C@@](C)(OC)[C@@H](O)[C@H](C)O2)[C@H](C)[C@@H](O[C@@H]2O[C@H](C)C[C@H](N(C)C)[C@H]2O)[C@](C)(OC)C[C@@H](C)C(=O)[C@H](C)[C@@H](O)[C@]1(C)O [Clarithromycin], the IC50 (M. abscessus L948) is reported as 15.4 µM and the “inhibition plateau in M. abscessus MABA” value (M. abscessus L948; plateau from 12.5–200 μM) is reported as ~ 70%.

In the case of NNC(=O)c1ccncc1 [Isoniazid], the MIC90 (M. tuberculosis H37Rv; [4]) is reported as 0.24 µM (≈ 0.0329 µg/mL) and the MIC90 (M. tuberculosis H37Rv; [5]) is reported as 0.12 µM (≈ 0.0165 µg/mL).

COc1c(N2C[C@@H]3CCCN[C@@H]3C2)c(F)cc2c(=O)c(C(=O)O)cn(C3CC3)c12 [Moxifloxacin] gave an MIC90 (M. tuberculosis H37Rv; [4]) of 0.43 µM (≈ 0.173 µg/mL) and an MIC90 (M. tuberculosis H37Rv; [5]) of 0.042 µM (≈ 0.0169 µg/mL).

For O=[N+]([O-])c1cn2c(n1)OC[C@@H](OCc1ccc(OC(F)(F)F)cc1)C2 [Pretomanid], the MIC90 (M. tuberculosis H37Rv; [4]) was 0.38 µM (≈ 0.137 µg/mL) and the MIC90 (M. tuberculosis H37Rv; [5]) was 0.51 µM (≈ 0.183 µg/mL).

Work on CO[C@H]1/C=C/O[C@@]2(C)Oc3c(C)c(O)c4c(O)c(c(/C=N/N5CCN(C)CC5)c(O)c4c3C2=O)NC(=O)/C(C)=C\C=C\[C@H](C)[C@H](O)[C@@H](C)[C@@H](O)[C@@H](C)[C@H](OC(C)=O)[C@@H]1C [Rifampicin] yielded an MIC90 (M. tuberculosis H37Rv; [4]) of 0.05 µM (≈ 0.0411 µg/mL) and an MIC90 (M. tuberculosis H37Rv; [5]) of less than 0.016 µM.

[H]/N=C(/N)N[C@H]1[C@H](O)[C@@H](O)[C@H](O[C@@H]2O[C@@H](C)[C@](O)(C=O)[C@H]2O[C@@H]2O[C@@H](CO)[C@H](O)[C@@H](O)[C@@H]2NC)[C@@H](N/C(N)=N\[H])[C@@H]1O [Streptomycin] gave an MIC90 (M. tuberculosis H37Rv; [4]) of 0.21 µM (≈ 0.122 µg/mL) and an MIC90 (M. tuberculosis H37Rv; [5]) of 0.27 µM (≈ 0.157 µg/mL).

For COc1cc(Cc2cnc(N)nc2N)cc(OC)c1OC [TMP, trimethoprim], the “SYTOX Green uptake” value (E. coli ATCC 25922 [2]) was “no uptake” and the “MIC values against E. coli ΔmscL, ΔmscS and WT parent strain set” value [3] was “no significant differences”.

Reference: PMC11908892 (ACS infectious diseases, 2025)
